Results published in patent US8137970B2, “Methods for inducing the differentiation of hematopoietic stem cells into megakaryocytes and platelets, and gene controlling the differentiation” (Ewha University-Industry Collaboration Foundation, priority 2008, dated 2012).

Experiments:
Format in all cases: cell-based, human
[1] = system: umbilical cord blood-derived CD34+ hematopoietic stem cell; test: Morphological change and polyploidization of CD34+ hematopoietic stem cells cocultured with OP9 stromal cells
Procedure: (§1) The OP9 stromal cell line was aliquoted into 6-well culture plate at a density of 1×10^5/well, and cultured for 24 hrs as a monolayer in a-MEM supplemented with 20% heat-inactivated FBS, 0.5% penicillin/streptomycin and 1.5 g/L sodium bicarbonate. When the OP9 stromal cell line was cultured as a monolayer, the media was replaced with StemSpan™ H3000 for CD34+ hematopoietic stem cell culture. Then, the CD34+ hematopoietic stem cells were aliquoted upper the op cells at a density of 3×10^5/well.
In order to confirm the distinct morphological change of the umbilical cord blood-derived CD34+ hematopoietic stem cell treated with the compound of Formula 1, the cells were treated with the compound of Formula 1 and the known hematopoietic stem cell differentiation inducers, CC100, CC200, IL-3, IL-6, TPO and SCF, so as to investigate morphological changes and polyploidization of the CD34+ hematopoietic stem cell.
The CD34+ hematopoietic stem cells cocultured with OP9 cells through Example 1 were treated with each of the materials. The cells were treated with each of the hematopoietic stem cell differentiation inducers at a following concentration; CC100 (rhFlt-3 ligand 100 ng/ml, SCF 100 ng/ml, IL-3 20 ng/ml, IL-6 20 ng/ml), CC200 (rhTPO 50 ng/ml, rhSCF 50 ng/ml, IL-3 10 ng/ml), Megacult-C (TPO 5 ng/ml, IL-3 1 ng/ml, IL-6 2 ng/ml), IL-3 of 10 ng/ml, IL-6 of 20 ng/ml, SCF of 50 ng/ml, and (R)-NALPCE of 45 μg/ml.
After 8 days, the cells were photographed by Mag. ×200 to examine the morphological changes (FIG. 1).
In addition, polyploidization of the cells was analyzed by FACS (flow cytometer). The cells were harvested and resuspended with 1×PBS containing 0.1% saponin. 10 mg/mL RNAse A and propidium iodide solution were added thereto. Thereafter, the cells were incubated at room temperature for 30 min. The cells were analyzed by FACS caliber flow cytometer and Cell quest software. Results are means±SD (n=3). Similar results were obtained in three independent experiments (FIG. 1).

[2] = system: umbilical cord blood-derived CD34+ hematopoietic stem cells; test: CD41 / CD61 megakaryocyte-specific marker expression by FACS in CD34+ hematopoietic stem cells cocultured with OP9; details: FIG. 2
Procedure: as §1
In order to confirm whether the differentiation of the umbilical cord blood-derived CD34+ hematopoietic stem cells into megakaryocytes and platelets was induced by treatment of the compound of Formula 1, the cells were treated with the compound of Formula 1 and the known hematopoietic stem cell differentiation inducers, CC200 and Megacult-C, singly or in a mixture. Then, expression of megakaryocyte-specific marker, CD41 or CD61 was analyzed.
The CD34+ hematopoietic stem cells cocultured with OP9 cells through Example 1 were treated with each of the hematopoietic stem cell differentiation inducers at a following concentration; CC200 (rhTPO 50 ng/ml, rhSCF 50 ng/ml, IL-3 10 ng/ml), Megacult-C (TPO 5 ng/ml), and (R)-NALPCE 35 ug/ml in culture media.
After 8 days, the culture media were centrifuged (1,000 rpm, 10 min), and the cell pellets thus obtained were washed three times with PBS. The cells were incubated with 20 μl of Fluorescein isothiocyanate (FITC)-conjugated mouse anti-human monoclonal CD41 antibody (DAKOCycomation, Denmark) or 20 μl of Fluorescein isothiocyanate(FITC)-conjugated mouse anti-human monoclonal CD61 antibody (DAKOCycomation, Denmark) in 200 μl of 0.01% bovine serum albumin (BSA)-PBS at 37° C. for 30 min while spinning to realize homogeneous fluorescent staining. After centrifugation (1,000 rpm, 10 min), the cell pellets thus obtained were washed three times with 0.01% bovine serum albumin (BSA) in PBS. Fluorescence was analyzed on a fluorescence-activated cell sorter (FACS Aria) using a Cellquest program. Results are means±SD (n=3). […]

K562 cells [3] = test: Oligonucleotide array (genechip) of gene expression during megakaryocytic differentiation; details: K562 cells treated with 50 μg/ml vs undifferentiated cells
Procedure: (§2) The OP9 stromal cell line was aliquoted into 6-well culture plate at a density of 1×10^5/well, and cultured for 24 hrs as a monolayer in a-MEM supplemented with 20% heat-inactivated FBS, 0.5% penicillin/streptomycin and 1.5 g/L sodium bicarbonate. When the OP9 stromal cell line was cultured as a monolayer, the K562 cells were aliquoted upper the OP9 cells at a density of 1×10^5/well, and cocultured with the OP9 cells. These K562 cells were treated with (R)-NALPLE (see Korean Patent No. 10-0688261) at a concentration of 50 μg/ml to induce megakaryocytic differentiation.
mRNAs were extracted from normal K562 cells and compound-treated K562 cells by the method of Example 5. To understand the genetic events during megakaryocytic development, the K562 cells were incubated for 6, 12, 24, 48, 72, 96, and 120 hr with the compound, and mRNAs were extracted from each cell using an RNeasy mini kit (Qiagen, USA). A genechip analysis was performed using 1 μg of RNA and an oligonucleotide array from Macrogen.
From analyzed data, total 67 genes, of which expression levels were increased more than 5-fold in differentiated K562 cells, were assigned. The functional categories included transcription factor, receptor, miscellaneous function, select calcium binding protein, phosphatase, signaling molecule, select regulatory factor, protease, nucleic acid binding, cytoskeleton protein, kinase, cell adhesion molecule, transferase, synthase, hydrolase defense/immunity and molecular function unclassified. Among these genes, selected were 4 genes of which expression levels were increased more 10 fold in differentiated cells, such as KLF2 (Kiruppel-like factor2), LOC138255 (OTTHUMP00000021439), GDF15 (growth differentiation factor 15) and INHBE (inhibin, betaE).

K562 cells [4] = test: Polyploidization (FACS) and morphology of shRNA-transfected K562 cells cocultured on OP9 in (R)-NALPCE; details: 50 μg/mL for 4 days, cocultured on OP9, FIG. 4
Procedure: To confirm whether the selected genes regulate the differentiation into megakaryocyte and platelets, shRNAs capable of inhibiting expressions of the KLF2, LOC138255, GDF15, and INHBE genes were constructed, and K562 cells were transfected with shRNAs.
The transfected K562 cells were sorted by FACS Aria flow cytometer, and cocultured upper OP9 stromal cells in 50 μg/mL of (R)-NALPCE for 4 days. Then, the cells were analyzed with a fluorescence-activated cell sorter using Cell quest, and photographed by Mag. ×200. Results are means±SD (n=3). Similar results were obtained in three independent experiments (FIG. 4).

K562 cells [5] = test: RT-PCR of KLF2, LOC138255, GDF15 and INHBE mRNA during megakaryocytic development; details: 50 μg/ml, incubated 6, 12, 24, 48, 72, 96 and 120 hr, FIG. 3
Procedure: as §2
To analyze the expression patterns of the selected 4 genes, KLF2, LOC138255, GDF15, and INHBE during megakaryocytic development, RT-PCR was performed to measure the mRNA level in cells.
In order to specifically analyze their expression patterns during megakaryocytic development, the K562 cells were incubated for 6, 12, 24, 48, 72, 96, and 120 hr with the compound ((R)-NALPLE 50 μg/ml). Total cellular RNA was extracted from the K562 cells using an RNeasy mini kit following the manufacturer's instructions using M-MLV Reverse Transcriptase (Promega, Madison, Wis.), and RT-PCR was performed.
Amplification conditions were followed by 20 cycles (for GAPDH) or 25 cycles (for KLF2, LOC138255, GDF15, and INHBE) at 95° C. for 30 seconds, 60° C. for 60 seconds, and 72° C. for 90 seconds. The primers used were the following: • KLF2 forward primer (SEQ ID NO.1): 5′-[…]-3′ • reverse primer (SEQ ID NO.2);5′-CATGTGCCGTTTCATGTGC-3′ • LOC138255 forward primer )SEQ ID NO.3); 5′-[…]-3′ • reverse primer )SEQ ID NO. 4);5′-[…]-3′ • GDF15 forward primer 9SEQ ID NO. 5); 5′-[…]-3′ • reverse primer (SEQ ID NO. 6): 5′-[…]-3′ • INHBE forward primer (SEQ ID NO. 7); 5′-[…]-3′ • reversre primer (SEQ ID NO. 8);5′[…]-3′ • GARDH forward primer (SEQ ID NO. 9);5′-[…]-3′ • reverse primer (SEQ ID NO. 10);5′-[…]-3′
After PCR reaction, each reaction mixture was analyzed by 1% agarose gel electrophoresis, and the bands were visualized by ethidium bromide staining (FIG. 3).

Compound	morphological change (morphological feature of megakaryocytes) ([1]; 45 μg/ml, after 8 days, cocultured with OP9 cells, photographed Mag. x200, FIG. 1)	polyploidization (FACS, propidium iodide) ([1]; 45 μg/ml, cocultured with OP9 cells, FIG. 1)	megakaryocytic differentiation together with CC200, compared to each single treatment ([1]; addition of compound to CC200 (rhTPO 50 ng/ml, rhSCF 50 ng/ml, IL-3 10 ng/ml))	megakaryocytic differentiation together with Megacult-C, compared to each single treatment ([1]; addition of compound to Megacult-C (TPO 5 ng/ml, IL-3 1 ng/ml, IL-6 2 ng/ml))	expression level of CD41 or CD61, CC200 together with the compound vs single treatment of CC200 ([2]; 35 ug/ml plus CC200, after 8 days)	expression level of CD41 or CD61, megacult-C together with the compound vs single treatment of megacult-C ([2]; 35 ug/ml plus Megacult-C (TPO 5 ng/ml), after 8 days)	expression level of megakaryocyte-specific marker CD41 or CD61, compared with cells treated with CC200 or megacult-C ([2]; single treatment 35 ug/ml, after 8 days)	GDF15 expression increase in differentiated cells (oligonucleotide array) (K562 cells [3])	INHBE expression increase in differentiated cells (oligonucleotide array) (K562 cells [3])	KLF2 expression increase in differentiated cells (oligonucleotide array) (K562 cells [3])	LOC138255 expression increase in differentiated cells (oligonucleotide array) (K562 cells [3])	polyploidization of non-transfected K562 cells (K562 cells [4])	GDF15 gene expression pattern (RT-PCR) (K562 cells [5])	INHBE gene expression pattern (RT-PCR) (K562 cells [5])	KLF2 gene expression pattern (RT-PCR) (K562 cells [5])	LOC138255 gene expression pattern (RT-PCR) (K562 cells [5])
CCCCCCCCCCCCCCCCCC(=O)N[C@H](COP(=O)([O-])OCC[N+](C)(C)C)C(=O)OC [compound of Formula 1, N-steroyl-O-phosphocholine-D-serine methyl ester]	increase in cytoplasmic mass and cell size	high nucleus number due to polyploidization through endomitosis	more induced megakaryocytic differentiation	more induced megakaryocytic differentiation	higher	higher	higher	> 10 fold	> 10 fold	> 10 fold	> 10 fold	high nucleus number due to polyploidization through the endomitosis	–	–	–	–
N-steroyl-O-phosphocholine-D-serine methyl ester [compound of Formula 1]	–	–	–	–	–	–	–	–	–	–	–	–	markedly expressed at 12 to 96 hr	markedly expressed at 12 to 96 hr	markedly expressed at 12 to 96 hr	markedly expressed at 12 to 96 hr
